The text below walks through data of patent US9056836B2, “Benzomorphan analogs and the use thereof” (Purdue Pharma L.P., priority 2013, dated 2015).

For assay [1], the target named is T1, μ-opioid receptor (Homo sapiens (Human), UniProt P35372). The assay can be described thus: μ-opioid receptor radioligand dose-displacement binding assay ([3H]-diprenorphine). As to conditions: binding affinity, μ-opioid receptor membranes. Here is the method:
μ-opioid Receptor Binding Assay Procedures: Radioligand dose-displacement binding assays for μ-opioid receptors used 0.3 nM [^3H]-diprenorphine (Perkin Elmer, Shelton, Conn.), with […] membrane protein/well in a final volume of 500 μl binding buffer (10 mM MgCl2, 1 mM EDTA, 5% DMSO, 50 mM HEPES, pH 7.4). Reactions were carried out in the absence or presence of increasing concentrations of unlabeled naloxone. All reactions were conducted in 96-deep well polypropylene plates for 2 hr at room temperature. Binding reactions were terminated by rapid filtration onto 96-well Unifilter GF/C filter plates (Perkin Elmer, Shelton, Conn.), presoaked in 0.5% polyethylenimine using a 96-well tissue harvester (Perkin Elmer, Shelton, Conn.) followed by performing three filtration washes with 500 μl of ice-cold binding buffer. Filter plates were subsequently dried at 50° C. for 2-3 hours. BetaScint scintillation cocktail (Perkin Elmer, Shelton, Conn.) was added (50 μl/well), and plates were counted using a Packard Top-Count for 1 min/well. The data were analyzed using the one-site competition curve fitting functions in GraphPad PRISM™ v. 3.0 or higher (San Diego. Calif.), or an in-house function for one-site competition curve-fitting.

The target of assay [2] is T2, κ opioid receptor (Homo sapiens (Human), UniProt P41145). In words: κ-opioid receptor radioligand dose-displacement binding assay ([3H]-U69,593). Here is the method: κ-opioid Receptor Binding Assay Procedures: Membranes from recombinant HEK-293 cells expressing the human κ opioid receptor (cloned in house) were prepared by lysing cells in ice cold hypotonic buffer (2.5 mM MgCl2, 50 mM HEPES, pH 7.4) (10 mL/10 cm dish) followed by homogenization with a tissue grinder/Teflon pestle. Membranes were collected by centrifugation at 30,000× g for 15 min at 4° C. and pellets were resuspended in hypotonic buffer to a final concentration of 1-3 mg/mL. Protein concentrations were determined using the BioRad protein assay reagent with bovine serum albumen as standard. Aliquots of κ receptor membranes were stored at −80° C.
Radioligand dose displacement assays used 0.4 nM [^3]-U69,593 (GE Healthcare, Piscataway, N.J.; 40 Ci/mmole) with 15 μg membrane protein (recombinant κ opioid receptor expressed in HEK 293 cells; in-house prep) in a final volume of 200 μl binding buffer (5% DMSO, 50 mM Trizma base, pH 7.4). Non-specific binding was determined in the presence of 10 μM unlabeled naloxone or U69,593. All reactions were performed in 96-well polypropylene plates for 1 hr at a temperature of about 25° C. Binding reactions were terminated by rapid filtration onto 96-well Unifilter GF/C filter plates (Perkin Elmer, Shelton, Conn.) presoaked in 0.5% polyethylenimine (Sigma). Harvesting was performed using a 96-well tissue harvester (Perkin Elmer, Shelton, Conn.) followed by five filtration washes with 200 μl ice-cold binding buffer. Filter plates were subsequently dried at 50° C. for 1-2 hours. Fifty μl/well scintillation cocktail (Perkin Elmer, Shelton, Conn.) was added and plates were counted in a Packard Top-Count for 1 min/well. Data were analyzed using the sigmoidal dose-response curve fitting functions in GraphPad PRISM™ v. 3.0, or an in-house function for non-linear, sigmoidal dose-response curve-fitting.
κ-opioid Receptor Binding Data: In certain embodiments, the Compounds of the Invention will have a Ki (nM) for κ receptors of about 10,000 or more (which, for purposes of this invention, is interpreted as having no binding to the κ receptors).

Assay [3] addresses T1, μ-opioid receptor. The assay can be described thus: μ-opioid receptor [35S]GTPγS functional assay. The class given is biochemical. As to conditions: for Emax: maximal effect relative to DAMGO. Here is the method:
μ-Opioid Receptor Functional Assay Procedures: [^35S]GTPγS functional assays were conducted using freshly thawed μ-receptor membranes (Perkin Elmer, Shelton, Conn.). Assay reactions were prepared by sequentially adding the following reagents to binding buffer (100 mM NaCl, 10 mM MgCl2, 20 mM HEPES, pH 7.4) on ice (final concentrations indicated): membrane protein (0.026 mg/mL), saponin ([…]), GDP ([…]) and [^35S]GTPγS (0.20 nM; Perkin Elmer, Shelton, Conn.). The prepared membrane solution (190 μl/well) was transferred to 96-shallow well polypropylene plates containing 10 μl of 20× concentrated stock solutions of the agonist [D-Ala^2, N-methyl-Phe^4 Gly-ol^5]-enkephalin (DAMGO) prepared in dimethyl sulfoxide (DMSO). Plates were incubated for 30 min at about 25° C. with shaking. Reactions were terminated by rapid filtration onto 96-well Unifilter GF/B filter plates (Perkin Elmer, Shelton, Conn.) using a 96-well tissue harvester (Perkin Elmer, Shelton, Conn.) followed by three filtration washes with 200 μl of ice-cold wash buffer (10 mM NaH2PO4, 10 mM Na2HPO4, pH 7.4). Filter plates were subsequently dried at 50° C. for 2-3 hr, BetaScint scintillation cocktail (Perkin Elmer, Shelton, Conn.) was added (50 μl/well) and plates were counted using a Packard Top-Count for […]. Data were analyzed using the sigmoidal dose-response curve fitting functions in GraphPad PRISM™; v. 3.0, or an in-house function for non-linear, sigmoidal dose-response curve-fitting.
μ-Opioid Receptor Functional Data: μ GTP EC50 is the concentration of a compound providing 50% of the maximal response for the compound, at a μ-opioid receptor. […] In certain embodiments.
μ GTP Emax (%) is the maximal effect elicited by a compound relative to the effect elicited by DAMGO, a standard μ agonist. Generally, the μ GTP Emax (%) value measures the efficacy of a compound to treat or prevent pain or other Conditions.
Background: Binding of GTPγS marks nucleotide exchange on a G protein.

Assay [4] deals with T2, κ opioid receptor. The assay can be described thus: κ-opioid receptor [35S]GTPγS functional assay. The class given is biochemical. As to conditions: for Emax: maximal effect relative to U69,593. The procedure: κ-Opioid Receptor Functional Assay Procedures: Functional [^35S]GTPγS binding assays were conducted as follows, k opioid receptor membrane solution was prepared by sequentially adding final concentrations of 0.026 μg/μl κ membrane protein (in-house), 10 μg/mL saponin, 3 μM GDP and 0.20 [^35S]GTPγS to binding buffer (100 mM NaCl, 10 mM MgCl2, 20 mM HEPES, pH 7.4) on ice. The prepared membrane solution (190 μl/well) was transferred to 96-shallow well polypropylene plates containing 10 μl of 20× concentrated stock solutions of agonist prepared in DMSO. Plates were incubated for 30 min at a temperature of about 25° C. with shaking. Reactions were terminated by rapid filtration onto 96-well Unifilter GF/B filter plates (Perkin Elmer, Shelton, Conn.) using a 96-well tissue harvester (Packard) and followed by three filtration washes with 200 μl ice-cold binding buffer (10 mM NaH2PO4, 10 mM Na2HPO4, pH 7.4). Filter plates were subsequently dried at 50° C. for 2-3 hours. Fifty μl/well scintillation cocktail (Perkin Elmer, Shelton, Conn.) was added and plates were counted in a Packard Top-Count for 1 min/well. Data were analyzed using the sigmoidal dose-response curve fitting functions in GraphPad PRISM™ v. 3.0, or an in-house function for non-linear, sigmoidal dose-response curve-fitting.
κ-Opioid Receptor Functional Data: κ GTP EC50 is the concentration of a compound providing 50% of the maximal response for the compound at a κ receptor.
κ GTP Emax (%) is the maximal effect elicited by a compound relative to the effect elicited by U69,593.

Setting [5] is: binding affinity, recombinant κ opioid receptor expressed in HEK 293 cells, read-out: Ki (nM) Opioid Receptor κ.
The mark [6] stands for this setting: μ GTP EC50, read-out: GTPγS μ EC50.
Where [7] appears, read: κ GTP EC50, read-out: GTPγS κ EC50.

Structures are written as SMILES. Read-outs that look alike come from different tables or passages of the source.

For orientation: Ki means the dissociation constant of the complex between target and ligand, obtained from inhibition or displacement. By Emax is commonly meant the maximal effect, on the per cent scale that the assay sets. As a reminder, the EC50 is the concentration that produces a half-maximal response. Take `O=C(O)CCC[C@]12CCN(CC3CC3)[C@H](Cc3ccc(O)cc31)[C@@H]2CC(=O)O` [Compound 10, 4-((2R,6R,11R)-11-(carboxymethyl)-3-(cyclopropylmethyl)-8-hydroxy-1,2,3,4,5,6-hexahydro-2,6-methanobenzo[d]azocin-6-yl)butanoic acid]: the Ki stood at 977 ± 335 nM at μ-opioid receptor [1] and 64.5 ± 11.3 nM on κ opioid receptor [2] (setting [5]). The Emax at μ-opioid receptor [3] came to 16 ± 3%; on κ opioid receptor [4], 31.3 ± 1.86%. Besides, the concentration giving a half-maximal response (EC50) at μ-opioid receptor [3] (setting [6]) turned out to be 70.5 ± 26.9 nM; at κ opioid receptor [4] (setting [7]), 275 ± 43.6 nM.
Turning to `CN(C)C(=O)CCC[C@]12CCN(CC3CC3)[C@H](Cc3ccc(O)cc31)/C2=C\C(=O)O` [Compound 12, (Z)-2-((2R,6S)-3-(cyclopropylmethyl)-6-(4-(dimethylamino)-4-oxobutyl)-8-hydroxy-1,2,3,4,5,6-hexahydro-2,6-methanobenzo[d]azocin-11-ylidene)acetic acid], the results for the Ki at μ-opioid receptor [1] and on κ opioid receptor [2] (setting [5]) were 853 ± 199 nM and 42.5 ± 4.24 nM, respectively. Also, the Emax turned out to be 48.7 ± 3.53% on μ-opioid receptor [3] and 74.7 ± 1.2% on κ opioid receptor [4]. In addition, the EC50 at μ-opioid receptor [3] (setting [6]) was 421 ± 140 nM; at κ opioid receptor [4] (setting [7]) it was 1000 ± 106 nM.
As for `O=C(O)/C=C1\[C@H]2Cc3ccc(O)cc3[C@]1(CCCC(=O)O)CCN2CC1CC1` [Compound 13, 4-((2R,6S,Z)-11-(carboxymethylene)-3-(cyclopropylmethyl)-8-hydroxy-1,2,3,4,5,6-hexahydro-2,6-methanobenzo[d]azocin-6-yl)butanoic acid], the inhibitory constant (Ki) was 1340 ± 356 nM at μ-opioid receptor [1] and 66.8 ± 8.74 nM at κ opioid receptor [2] (setting [5]). Further, the Emax was 44.3 ± 9.06% at μ-opioid receptor [3] and 74.3 ± 7.84% at κ opioid receptor [4]. The results for the EC50 on μ-opioid receptor [3] (setting [6]) and at κ opioid receptor [4] (setting [7]) were 743 ± 195 nM and 555 ± 61.1 nM, respectively.
On κ opioid receptor [2], `COc1ccc2c(c1)[C@]1(CCO)CCN(CC3CC3)[C@H](C2)[C@@H]1CO` [Compound 19, 2-((2R,6S,11R)-3-(cyclopropylmethyl)-11-(hydroxymethyl)-8-methoxy-1,2,3,4,5,6-hexahydro-2,6-methanobenzo[d]azocin-6-yl)ethanol] displayed a Ki of 89.6 ± 33 nM. At μ-opioid receptor [3], this molecule showed an EC50 above 20000 nM. Besides, at κ opioid receptor [4], it took 1860 ± 231 nM to reach a half-maximal effect (EC50) and the Emax amounted to 40.3 ± 5.36%.
Turning to `COc1ccc2c(c1)[C@]1(CC(N)=O)CCN(CC3CC3)[C@H](C2)[C@@H]1CO` [Compound 22, 2-((2R,6S,11R)-3-(cyclopropylmethyl)-11-(hydroxymethyl)-8-methoxy-1,2,3,4,5,6-hexahydro-2,6-methanobenzo[d]azocin-6-yl)acetamide], on κ opioid receptor [2] (setting [5]), the Ki came out at 79.1 ± 19.1 nM. Also, the maximal response (Emax) came out at 56 ± 3.61% at μ-opioid receptor [3] and 41.7 ± 4.91% at κ opioid receptor [4]. Further, the EC50 at μ-opioid receptor [3] (setting [6]) is 1280 ± 177 nM; at κ opioid receptor [4] (setting [7]), 2180 ± 326 nM.
